# In PubChem BioAssay (NCI):
# Values joined by “and” are separate entries in the source; they are usually repeats but may differ in a detail not shown here. Identical values can stand only once.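 1) Cells in 96-well plates. 2) Compound, 48 h, 5 concentrations. 3) Linear interpolation between surrounding doses. 4) Unreached endpoint = highest concentration. GI50 = concentration required for 50% inhibition of growth. At the TGI there is no net growth.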 Where a SMILES comes first, the peptide text is derived from it. [ ]: non-standard residue; d: D form. 2Nal = N[CH](Cc1ccc2ccccc2c1)C(=O)O
# Key:
# Assay in all cases: inhibition of tumour cell growth, NCI panel, 48 h
# COLO 205 colon = system: COLO 205 colon
# DMS 114 small cell lung = system: DMS 114 small cell lung
# DMS 273 small cell lung = system: DMS 273 small cell lung
# HL-60(TB) leukemia = system: HL-60(TB) leukemia
# HOP-18 NSCLC = system: HOP-18 NSCLC
# HOP-92 NSCLC = system: HOP-92 NSCLC
# M19-MEL melanoma = system: M19-MEL melanoma
# MOLT-4 leukemia = system: MOLT-4 leukemia
# RXF 393 renal = system: RXF 393 renal
# SF-539 CNS = system: SF-539 CNS
# SK-MEL-5 melanoma = system: SK-MEL-5 melanoma
# NCI/ADR-RES ovarian = system: NCI/ADR-RES ovarian
Structure (SMILES),TGI (COLO 205 colon),TGI (DMS 114 small cell lung),TGI (DMS 273 small cell lung),TGI (HL-60(TB) leukemia),TGI (HOP-18 NSCLC),TGI (HOP-92 NSCLC),TGI (M19-MEL melanoma),TGI (MOLT-4 leukemia),TGI (RXF 393 renal),TGI (SF-539 CNS),TGI (SK-MEL-5 melanoma),TGI (NCI/ADR-RES ovarian),GI50 (COLO 205 colon),GI50 (HL-60(TB) leukemia),GI50 (MOLT-4 leukemia),GI50 (RXF 393 renal),GI50 (SF-539 CNS)
CC(C)OCN1COCN=C1NC#N,47.9 µM,> 100 µM,> 100 µM,> 100 µM,> 100 µM,> 100 µM,> 100 µM,> 100 µM,> 100 µM,> 100 µM,> 100 µM,,,,,,
Cc1oc2c(c1C(=O)c1ccccc1)C(=O)c1ccccc1C2=O,36.5 µM,8.03 µM,26.7 µM,17.1 µM,30.4 µM,4.65 µM,4.93 µM,6.38 µM,8.2 µM,24.7 µM,4.15 µM,20.7 µM,,,,,
Cc1cccc(NC(=O)CC2C(=O)Nc3ccccc3S2(=O)=O)c1C (configuration not stated),> 100 µM,51.6 µM,> 100 µM,> 100 µM,61.9 µM,37.9 µM,> 100 µM,> 100 µM,34.3 µM,37.6 µM,74.1 µM,,,,,,
Cc1ccccc1NC(=O)C(=O)Cc1nc2ccccc2s1,> 100 µM,> 100 µM,> 100 µM,> 100 µM,> 100 µM,> 100 µM,> 100 µM,> 100 µM,> 100 µM,> 100 µM,> 100 µM,,,,,,
COCCN1C2=CCCCC2=Nc2c(N)nc(N)nc21,> 100 µM,> 100 µM,> 100 µM,> 100 µM,> 100 µM,> 100 µM,> 100 µM,> 100 µM,> 100 µM,> 100 µM,> 100 µM,,,,,,
CC(NC1CCC[C@H]1O)c1ccccc1 (mixture of isomers),> 100 µM,> 100 µM,> 100 µM,> 100 µM,> 100 µM,> 100 µM,> 100 µM,> 100 µM,> 100 µM,> 100 µM,> 100 µM,,,,,,
C=C1CC2(OC1=O)c1ccccc1CCc1ccccc12,3.57 µM,3.42 µM,11.3 µM,3.26 µM,4.61 µM,3.14 µM,3.36 µM,7.18 µM,3.07 µM,4.06 µM,28 µM,3.04 µM,,,,,
O=C1CCC(=O)c2cc(Br)ccc2N1,> 100 µM,> 100 µM,> 100 µM,> 100 µM,> 100 µM,> 100 µM,> 100 µM,> 100 µM,> 100 µM,> 100 µM,> 100 µM,,,,,,
O=C1OC(=O)C2C3CCC(O3)C12 (configuration not stated),> 100 µM,> 100 µM,> 100 µM,> 100 µM,> 100 µM,> 100 µM,> 100 µM,> 100 µM,> 100 µM,> 100 µM,> 100 µM,,,,,,
CC(NC(=O)C(N)Cc1ccccc1)C(=O)NC(Cc1ccc(O)cc1)C(=O)NC(Cc1c[nH]c2ccccc12)C(=O)NC(CCCCN)C(=O)NC(C(=O)NC(C)C(=O)NC(Cc1ccc2ccccc2c1)C(N)=O)C(C)C (configuration not stated) (H-FAYWKVA[2Nal]-NH2; configuration not given here),> 12.5 µM and 61.2 µM,92.6 µM,54.1 µM,> 12.5 µM and 31.9 µM,46.3 µM,,74 µM,32 µM,> 12.5 µM and 36.5 µM,> 12.5 µM and 62.4 µM,> 12.5 µM,> 12.5 µM,27.1 µM,18 µM,16.7 µM,17.7 µM,21.8 µM
